One block for each molecule: values may come before it.
Assays:
HeLa cells = experiment: BrdU pulse / PI bivariate FACS analysis of replisome stability; type: cell-based; details: hydroxyurea 24 hr
Experimental: In order to evaluate the effect of Claspin depletion on replisome stability, the ability of Claspin-depleted cells to maintain functional replisomes in the continuous presence of imposed replicational stress was investigated (FIG. 1). To do this, cells were treated with buffer control or 2 mM hydroxyurea (HU) for 24 h, then exposed to a 30 min pulse of BrdU, prior to fixation and PI staining, and subsequent bivariate FACS analysis.
(§1) HeLa or HCC1937 cells were seeded at 5×10^4 or 2×10^5 cells into 6-well tissue culture plates respectively, in 1 mL of their media and left for 24 hours. Cells were then washed twice with warm PBS and transfected twice over 48 hours with SMARTpool™ siRNA against Claspin (Dharmacon, Chicago, Ill., USA) at a concentration of 100 nM for 5 hours in serum free media (OptiMEM (Invitrogen)) using Oligofectamine (Invitrogen) as per manufacturer's instructions. After each transfection, cells were then washed once with warm PBS, and 1.5 mL of media added and then left for 19 hours. After transfection cells were trypsinized and seeded into 60 mm dishes and left in fresh media for 24 hours before being treated with either 0 or 2 mM HU for 24 hours. Alternatively cells were untreated, left in a flow cabinet for an equivalent time. […]

HCC1937 cells = experiment: as above; type: cell-based; details: mock siRNA-treated HCC1937 cells
Experimental: BRCA1 has been implicated previously in the cellular response to IR, and BRCA1-deficient cells fail to activate Chk1 following IR exposure. The inventors investigated the effect of siRNA-mediated knockdown of Claspin in HCC1937 cells which lack functional BRCA1 and which have been previously shown to have a defective G2 checkpoint, failing to arrest on exposure to IR. […] The loss of BrdU incorporation was particularly observed in mid- to late-S phase cells.
as §1

MDC1 = target: T1, MDC1 (UniProt Q14676 1-2089); experiment: co-immunoprecipitation with anti-Chk1 antibody from HeLa cell extracts, immunoblot
T1 construct: Endogenous protein in HeLa whole cell extract
Experimental: (§2) Cells were then lysed through 3 freeze/thaw cycles, and clarified by centrifugation at 14,000 rpm for 5 mins at 4° C. The supernatant was then removed and assayed for concentration by Bradford assay (Pierce) and aliquots stored at −70° C. until use. For immunoblotting 25-60 μg of whole cell extract was used per well in Laemmli SDS loading buffer. Extracts were separated on 6-12% SDS-PAGE gels before being transferred to nitrocellulose membrane (Protran) for probing. Membranes were blocked in either 5% Marvel milk or 5% BSA according to antibody manufacturer's guidelines. Membranes were then washed before being probed with primary antibodies diluted in blocking buffer. […] Secondary antibodies were anti-rabbit IgG-HRP, anti-sheep IgG-HRP and anti-mouse IgG-HRP (Jackson Immunologicals) and bands were detected using enhanced chemiluminescence (ECL) (Amersham Pharmacia) and autoradiographic film (FUJI film).
(§3) Immunoprecipitation (IP) as carried out with 500 μg to 1 mg of whole cell extract per IP. […] Complexes isolated were then analysed by immunoblotting.

TopBP1 = target: T2, TopBP1 (UniProt Q92547 1-1522); experiment: as above
T2 construct: Endogenous protein in HeLa whole cell extract
Experimental: as §2, §3

T2 sequence (Q92547 whole entry): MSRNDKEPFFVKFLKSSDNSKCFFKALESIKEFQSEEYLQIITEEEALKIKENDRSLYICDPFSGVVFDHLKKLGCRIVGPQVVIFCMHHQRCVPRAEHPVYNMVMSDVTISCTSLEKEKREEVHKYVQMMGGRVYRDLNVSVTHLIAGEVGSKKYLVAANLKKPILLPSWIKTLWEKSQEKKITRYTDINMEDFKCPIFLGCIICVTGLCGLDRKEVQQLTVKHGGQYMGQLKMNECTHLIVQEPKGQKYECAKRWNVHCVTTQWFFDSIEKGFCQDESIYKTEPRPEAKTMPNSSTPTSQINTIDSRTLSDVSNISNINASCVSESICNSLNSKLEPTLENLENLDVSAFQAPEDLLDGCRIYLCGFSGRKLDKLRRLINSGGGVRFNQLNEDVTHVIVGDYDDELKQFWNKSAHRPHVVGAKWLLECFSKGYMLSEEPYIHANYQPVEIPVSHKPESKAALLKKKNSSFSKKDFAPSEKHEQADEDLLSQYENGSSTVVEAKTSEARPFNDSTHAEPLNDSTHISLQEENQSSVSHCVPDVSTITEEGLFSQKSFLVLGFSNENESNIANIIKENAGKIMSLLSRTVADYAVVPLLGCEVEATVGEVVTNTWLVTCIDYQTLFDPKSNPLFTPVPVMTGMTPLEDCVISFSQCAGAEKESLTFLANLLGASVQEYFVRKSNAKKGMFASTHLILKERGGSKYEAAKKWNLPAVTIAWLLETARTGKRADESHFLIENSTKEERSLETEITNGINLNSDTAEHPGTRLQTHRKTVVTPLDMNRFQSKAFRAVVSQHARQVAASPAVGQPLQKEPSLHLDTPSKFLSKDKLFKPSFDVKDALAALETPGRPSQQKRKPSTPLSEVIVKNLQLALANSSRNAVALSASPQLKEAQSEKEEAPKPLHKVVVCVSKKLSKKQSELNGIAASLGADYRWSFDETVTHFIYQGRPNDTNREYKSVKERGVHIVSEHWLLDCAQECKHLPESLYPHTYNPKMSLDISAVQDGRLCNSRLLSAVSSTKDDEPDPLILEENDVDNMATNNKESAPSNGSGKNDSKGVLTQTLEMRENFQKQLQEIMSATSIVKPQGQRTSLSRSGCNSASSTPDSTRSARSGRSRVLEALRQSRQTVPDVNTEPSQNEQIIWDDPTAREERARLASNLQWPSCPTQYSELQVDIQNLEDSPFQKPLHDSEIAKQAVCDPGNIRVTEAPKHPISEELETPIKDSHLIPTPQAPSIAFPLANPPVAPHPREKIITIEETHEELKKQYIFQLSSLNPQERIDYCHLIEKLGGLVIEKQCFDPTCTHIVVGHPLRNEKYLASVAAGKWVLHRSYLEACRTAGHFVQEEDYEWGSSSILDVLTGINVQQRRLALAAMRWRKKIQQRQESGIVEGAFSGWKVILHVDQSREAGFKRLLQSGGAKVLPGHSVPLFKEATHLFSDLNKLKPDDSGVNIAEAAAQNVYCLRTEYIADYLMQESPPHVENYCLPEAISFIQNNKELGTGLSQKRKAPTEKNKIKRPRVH
T1 sequence (Q14676 whole entry): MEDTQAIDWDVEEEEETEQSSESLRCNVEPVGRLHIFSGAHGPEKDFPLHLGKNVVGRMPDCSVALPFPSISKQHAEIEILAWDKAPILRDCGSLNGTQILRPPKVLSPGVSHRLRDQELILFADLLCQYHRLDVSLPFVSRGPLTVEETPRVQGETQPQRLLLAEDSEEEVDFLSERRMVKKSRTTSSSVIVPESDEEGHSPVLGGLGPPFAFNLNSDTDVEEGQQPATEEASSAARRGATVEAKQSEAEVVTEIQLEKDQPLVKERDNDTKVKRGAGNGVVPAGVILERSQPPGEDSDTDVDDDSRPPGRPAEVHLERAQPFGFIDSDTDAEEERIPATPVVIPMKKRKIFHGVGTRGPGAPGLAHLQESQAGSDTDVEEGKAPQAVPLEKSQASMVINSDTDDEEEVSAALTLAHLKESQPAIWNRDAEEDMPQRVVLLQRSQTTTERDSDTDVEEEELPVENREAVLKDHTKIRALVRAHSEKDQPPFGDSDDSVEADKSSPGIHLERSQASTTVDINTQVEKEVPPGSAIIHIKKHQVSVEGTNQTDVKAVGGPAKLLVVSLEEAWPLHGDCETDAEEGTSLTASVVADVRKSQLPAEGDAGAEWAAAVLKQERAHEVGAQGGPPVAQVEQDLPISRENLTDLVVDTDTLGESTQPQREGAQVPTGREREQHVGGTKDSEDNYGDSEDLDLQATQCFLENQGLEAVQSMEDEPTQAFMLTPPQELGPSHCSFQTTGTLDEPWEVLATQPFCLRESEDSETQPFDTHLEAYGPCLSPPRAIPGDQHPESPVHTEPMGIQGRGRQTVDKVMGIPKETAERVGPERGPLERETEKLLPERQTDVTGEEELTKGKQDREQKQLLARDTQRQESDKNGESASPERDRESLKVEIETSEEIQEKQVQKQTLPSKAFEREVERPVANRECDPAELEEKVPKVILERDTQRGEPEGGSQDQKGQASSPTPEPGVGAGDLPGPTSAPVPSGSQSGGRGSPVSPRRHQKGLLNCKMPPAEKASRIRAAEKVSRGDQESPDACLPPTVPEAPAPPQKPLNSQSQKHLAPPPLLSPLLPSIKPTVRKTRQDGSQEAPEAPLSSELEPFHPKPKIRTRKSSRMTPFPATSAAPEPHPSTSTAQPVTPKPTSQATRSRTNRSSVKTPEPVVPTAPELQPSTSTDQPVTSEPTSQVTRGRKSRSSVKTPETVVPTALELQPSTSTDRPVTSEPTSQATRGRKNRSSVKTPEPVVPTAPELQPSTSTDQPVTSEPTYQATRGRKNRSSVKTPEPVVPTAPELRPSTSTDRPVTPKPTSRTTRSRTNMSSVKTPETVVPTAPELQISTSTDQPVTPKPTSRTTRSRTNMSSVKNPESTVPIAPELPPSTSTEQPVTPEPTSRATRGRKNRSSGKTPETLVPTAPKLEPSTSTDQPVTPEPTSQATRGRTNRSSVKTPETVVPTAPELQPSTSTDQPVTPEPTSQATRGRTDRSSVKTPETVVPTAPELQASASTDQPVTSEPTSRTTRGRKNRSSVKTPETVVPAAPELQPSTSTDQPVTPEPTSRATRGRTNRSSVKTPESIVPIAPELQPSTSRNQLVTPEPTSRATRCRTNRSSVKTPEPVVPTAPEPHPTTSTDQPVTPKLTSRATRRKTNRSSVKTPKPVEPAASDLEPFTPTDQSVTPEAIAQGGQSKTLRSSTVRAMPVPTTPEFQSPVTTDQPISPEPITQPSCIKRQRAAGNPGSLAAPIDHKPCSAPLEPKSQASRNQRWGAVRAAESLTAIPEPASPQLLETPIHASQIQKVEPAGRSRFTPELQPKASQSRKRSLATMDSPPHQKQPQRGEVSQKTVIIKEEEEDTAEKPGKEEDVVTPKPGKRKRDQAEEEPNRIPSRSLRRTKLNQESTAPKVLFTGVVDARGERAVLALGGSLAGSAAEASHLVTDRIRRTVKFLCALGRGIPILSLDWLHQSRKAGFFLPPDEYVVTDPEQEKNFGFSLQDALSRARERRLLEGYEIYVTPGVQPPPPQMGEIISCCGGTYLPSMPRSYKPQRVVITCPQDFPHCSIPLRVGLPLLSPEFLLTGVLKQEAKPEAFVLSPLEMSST

Molecule: NC(=O)NO [hydroxyurea]
accumulation of cells in early S phase (HeLa cells): significant accumulation of cells in early S phase
accumulation of cells in early S-phase (HCC1937 cells): accumulation of cells in early S-phase

binding result (MDC1): no binding
binding result (TopBP1): no binding
B1: Chk1 (serine/threonine protein kinase Chk1) (enzyme, UniProt O14757 1-476, looked up)
chain: MAVPFVEDWDLVQTLGEGAYGEVQLAVNRVTEEAVAVKIVDMKRAVDCPENIKKEICINKMLNHENVVKFYGHRREGNIQYLFLEYCSGGELFDRIEPDIGMPEPDAQRFFHQLMAGVVYLHGIGITHRDIKPENLLLDERDNLKISDFGLATVFRYNNRERLLNKMCGTLPYVAPELLKRREFHAEPVDVWSCGIVLTAMLAGELPWDQPSDSCQEYSDWKEKKTYLNPWKKIDSAPLALLHKILVENPSARITIPDIKKDRWYNKPLKKGAKRPRVTSGGVSESPSGFSKHIQSNLDFSPVNSASSEENVKYSSSQPEPRTGLSLWDTSPSYIDKLVQGISFSQPTCPDHMLLNSQLLGTPGSSQNPWQRLVKRMTRFFTKLDADKSYQCLKETCEKLGYQWKKSCMNQVTISTTDRRNNKLIFKVNLLEMDDKILVDFRLSKGDGLEFKRHFLKIKGKLIDIVSSQKIWLPAT
notes: Endogenous protein in HeLa whole cell extract; HeLa is a human cell line; also called Chk1 protein kinase

Reference: patent publication US20120121610A1, “THERAPEUTIC AGENT AND ASSAY” (priority 2009, published 2012)
